Experiment: gradient 5% acetonitrile 3 min, to 50% in 2 min, to 85% in 15 min, held 3 min, 100 µL/min
Details: column: Zorbax Extend-C18 2.1 x 50 mm; eluents: water / acetonitrile, 0.1% formic acid
In short: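 Each retention time is based on an adduct peak selected computationally and verified by manual inspection. Measurements used HPLC–quadrupole time-of-flight mass spectrometry in positive and negative ionization mode on mixtures of ~100 pure standards. Chromatography ran on a Zorbax Extend-C18 column (2.1 × 50 mm, 1.8 μm) at 100 μL/min with water and acetonitrile, each containing 0.1% formic acid, and dead and dwell volumes of 40 μL and 900 μL.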

RP-LC retention time [s] | Structure (SMILES)
866 | CCc1ccc(CNC(=O)Cn2cc(-c3nnco3)c3ccccc32)cc1
974 | Cc1nn2c(CNS(=O)(=O)Cc3ccc(C)c(C)c3)c(-c3ccccc3)nc2s1
678 | CCCCN1C(=O)c2ccccc2C(C(=O)NCc2cccnc2)C12CCCCC2 (stereo not given)
687 | O=C(c1cc(C2CC2)n(CC(=O)N(Cc2ccccc2)c2ccccn2)n1)N1CCOCC1
653 | O=C(NCc1ccccn1)c1ccc2c(c1)N(C(=O)c1ccc(F)cc1)CC2
586 | Cc1cc(C)c2c(N3CCCC3)nc(C(=O)NC(C)c3ccccn3)nc2n1 (stereo not given)
626 | O=S(=O)(Nc1cccc(-c2cn3ccccc3n2)c1)c1ccccc1
896 | O=C(O)c1ccc(NCc2nc3ccccc3[nH]2)cc1
1100 | Cc1nc(C)c(C(=O)Nc2nc(-c3ccc(Br)cc3)c(C)s2)s1
661 | CCc1nc2c(c(=O)n1CC(=O)NCc1ccc(C)cc1)CN(Cc1ccccc1)CC2
946 | O=C(Cn1cccc1-c1nnc(C2CCC2)o1)N1CCc2ccccc21
599 | CC1=C(C(=O)Nc2ccccc2C(=O)NCCN2CCN(C)CC2)SCCO1
837 | CSc1nc2ccc(NC(=O)c3cccs3)cc2s1
560 | CCCN1CCN(CCCNC(=O)Cn2c3ccccc3c3cnn(C)c(=O)c32)CC1
843 | O=C(Cc1cccc(Cl)c1)Nc1cc(-c2ccccn2)no1
748 | Cc1cc2c(cc1S(=O)(=O)N1CCCC1C(=O)N1CCc3ccccc3C1)OCC(=O)N2 (stereo not given)

RP-LC retention time [s] | Structure (SMILES)
684 | Cc1nc(-c2noc(-c3cccnc3)n2)cn1CC(=O)NC(C)c1ccccc1 (stereo not given)
792 | O=C(Nc1cc(-c2ccsc2)no1)C1CC1
682 | CCC1CN2C=Nc3oc(C)c(C(=O)Nc4ccc(F)cc4Br)c3C2=N1 (stereo not given)
598 | O=C(C1CCC1)N1CCC(Cc2nc(C3CC3)n[nH]2)CC1
689 | Cc1ccc(F)c(-n2nnc(C(=O)O)c2C)c1
826 | Cc1nnc(-c2nnc(NCc3cccc(F)c3)c3ccccc23)o1
925 | O=C(NCc1ccc(F)cc1F)c1ccc(Cn2c(C(F)(F)F)nc3cccnc32)cc1
652 | CCCN1CCN(C(=O)CN2C(=O)C3CCCCN3c3ccc(C(=O)N4CCCCC4)cc32)CC1 (stereo not given)
627 | O=C(CCSCCc1ccccn1)Nc1c(F)cc(F)cc1Br
1170 | O=S(=O)(NC1CCCCCC1)c1ccc(-c2cc(C(F)(F)F)on2)o1
807 | Cc1ccc(NC(=O)N2C[C@@H](F)C[C@H]2C(=O)N2CCc3ccccc3C2)cc1
835 | COCc1nc(-c2ccc(OC3CCN(C(=O)c4n[nH]c5ccccc45)C3)cc2)no1 (stereo not given)
966 | COc1ccc(S(=O)(=O)Cc2nc(-c3ccccc3Cl)no2)cc1
861 | Cc1cc(C)cc(NC(=O)N2CCC(n3cnc4ccc(F)cc4c3=O)CC2)c1
660 | O=C(CNC(=O)c1ccc(F)c(Cl)c1)Nc1nc2ccccc2[nH]1
665 | N#Cc1ccc(C(=O)Nc2cccc(-c3nnc4n3CCCC4)c2)cc1

More lines, now with the values behind:

Structure (SMILES) | RP-LC retention time [s]
Cc1nc2cc(NC(=O)c3ccc(S(=O)(=O)N(C)CC4CCCO4)cc3)ccc2s1 (stereo not given) | 764
Cc1cccc(Cn2c(=O)n(CCNC(=O)C3CCC3)c3ncccc32)c1 | 784
CCC(=O)N(C1CCOCC1)C1CCN(S(=O)(=O)c2ccc(F)cc2)CC1 | 792
Cc1cc(N2CCN(S(=O)(=O)c3cc(F)ccc3C)CC2)nc(N2CCCC2)n1 | 783
O=C(Cn1cccc1-c1nnc(-c2ccccc2)o1)N1CCN(c2ccccc2)CC1 | 984
Cc1noc(-c2cc(=O)n(CC(=O)Nc3ccccc3Cl)c3ccccc23)n1 | 900
O=C(Cc1cccs1)N1CCCC(c2nncn2-c2ccccc2)C1 (stereo not given) | 663
Cc1nn(CC(=O)NCCN2CCOCC2)c(=O)c2nc(-c3ccccc3)sc12 | 610
O=C(NCCc1ccccc1)C1CCCN(c2ncnc3c2nc2n3CCCCC2)C1 (stereo not given) | 758
COc1ccc(-c2ncc3c(n2)CCN(S(=O)(=O)c2cccc4cccnc24)C3)cc1 | 935
O=c1c2cc([N+](=O)[O-])ccc2nc(CN2CCN(c3ccccn3)CC2)n1-c1ccccc1F | 670
Cc1cc(N2CCN(C)CC2)nc2ccc(NC(=O)Nc3cccc(Cl)c3)cc12 | 590
CC1CCN(C(=O)Cn2c(=O)c3cccn3c3ccc(F)cc32)CC1 | 855
c1ccc(-c2n[nH]c(C3CCCN(Cc4ccoc4)C3)n2)cc1 (stereo not given) | 531
COc1cccc(NC(=O)Nc2cc(-c3cn4cccnc4n3)ccc2OC)c1 | 654
Cc1ncsc1C1N(C2CCN(C(=O)C3CCC3)CC2)C(=O)C12CCCC2 (stereo not given) | 661
Cc1ccc(CNC(=O)CCCN2C(=O)CCn3nc(-c4cn(C)c5ccccc45)cc32)o1 | 815
Cc1ccc(Cl)cc1NS(=O)(=O)c1cc(-c2nc(C(C)C)cs2)cs1 | 1230
O=C(NCC(F)(F)F)C1CN(C(=O)c2ccc(F)c(F)c2)C1 | 667
O=C(CCc1nnn2c1CN(C(=O)C1CCCC1)CC2)N1CCOCC1 | 616

Structure (SMILES) | RP-LC retention time [s]
COc1ccc(C2C(C(=O)NCCCN3CCOCC3)CCC(=O)N2c2ccc(OC)cc2)cc1 (stereo not given) | 580
O=C(Nc1nnc(Cc2ccccc2)s1)C1CC(=O)N(c2n[nH]c3ccccc23)C1 (stereo not given) | 730
O=C(C1CCC1)N1CCc2c([nH]c3ccccc23)C1c1ccc(Cl)cc1 (stereo not given) | 1230
COCCCNS(=O)(=O)c1cc(-c2[nH]ncc2C(=O)N2CCCCC2)oc1C | 646
Cc1cc2ccccc2n1CCNC(=O)C(=O)c1cn(CC(=O)N2CCCC2)c2ccccc12 | 1010
CNC(=O)c1cc(-c2cccc(OC)c2)n[nH]1 | 665
COc1ccc(OCc2nnc3sc(-c4ccc(OC)cc4OC)nn23)cc1 | 989
CC1=C(c2ccc(C)c(C)c2)S(=O)(=O)N=C1N1CCCN(C(=O)NCC(C)C)CC1 | 853
CNC(=O)c1cccn1Cc1ccc(F)cc1 | 791
CC(C)S(=O)(=O)Nc1ccc2c(c1)CN(C(=O)c1ccco1)CC2 | 685
COCCN1C(=O)CCc2cc(NC(=O)C3CCC3)ccc21 | 673
Cc1ccc(N2CCC(NC(=O)c3ccc(Br)o3)C2=O)cc1C (stereo not given) | 882
CC(C)Cn1c(=O)c(C(=O)NC2CCN(Cc3ccccc3)CC2)nc2cccnc21 | 670
COCCN1CCC2(CC1)CN(Cc1cccc(F)c1)Cc1ccccc1O2 | 629
Cc1ccc(-c2cn3cc(C(=O)NC(C)c4cccnc4)ccc3n2)cc1C (stereo not given) | 585
Cc1ccc(NC(=O)N2CCCC(C)(C(=O)NCc3ccccc3C)C2)c(C)c1 (stereo not given) | 1000
Cc1ccc(N2CC(C(=O)N3CCC(NS(=O)(=O)c4ccccc4)CC3)CC2=O)cc1C (stereo not given) | 800
O=C(CN1C(=O)CSCC1=O)Nc1ccc2c(c1)OCO2 | 638
CC(=O)Nc1nc(C)c(-c2ccc(Cl)c(S(=O)(=O)NCCO)c2)s1 | 685
CCn1cc(C(=O)Nc2cccc(OC)c2)c2cccnc21 | 809

Structure (SMILES) | RP-LC retention time [s]
Cc1ccc(-n2ncc3c(NCCCN(C)C)ncnc32)cc1C | 625
O=C(c1ccco1)N1CCN(C(=O)c2c3c(nc4ccccc24)C(=O)N(C2CCCCC2)C3)CC1 | 727
C#C[C@]1(O)CC[C@H]2[C@@H]3CCC4=CC(=O)CCC4=C3C=C[C@@]21CC | 1050
CC(C)CCOc1cccc(OCC(=O)NCC(=O)O)c1 | 772
COc1ccc(NC(=O)CSc2cc(N3CCN(c4ccc(OC)cc4)CC3)ncn2)cc1 | 859
C=CCn1c(=O)c2ccccc2n(Cc2nc(-c3ccc(F)cc3)no2)c1=O | 1050
COc1ccc(OC)c(NC(=O)CN2C(=O)C(C)(C)c3cc(C)ccc32)c1 | 915
COc1ccc(-c2nc3n(c2C(=O)Nc2nc(-c4ccccc4)cs2)CCS3(=O)=O)cc1 | 1010
O=C1CCN(C(=O)C2CCN(C(=O)c3ccco3)CC2)CCCCCCN1 | 623
COCC(=O)N(CC(=O)N1CCc2sccc2C1COc1ccc(Cl)c(C)c1)C1CC1 (stereo not given) | 960
Cc1cccc(Cn2nc(-c3nc(C)no3)ccc2=O)c1 | 789
CCOC(=O)C1CCN(c2ncccc2-c2nnc(-c3ccc(C)cc3)o2)CC1 | 1140
CCOC(=O)CNC(=O)N1CCN(c2nc3ccccc3nc2C(F)(F)F)CC1 | 881
CCNc1cc(N2CCC(CCC(=O)Nc3ccc(OC)c(OC)c3)CC2)ncn1 | 614
CC(=O)Nc1nsc(N2CCC(C(=O)NCc3ccc4c(c3)OCO4)CC2)n1 | 641
Cc1ccsc1CN1CCC(Cn2c(C)cnc2C)CC1 | 521
CCc1ccc(-c2ccc(=O)n(Cc3nc(-c4cccs4)no3)n2)cc1 | 1060
NC(=O)CSc1nnc(N2CCN(C(=O)c3ccccc3[N+](=O)[O-])CC2)s1 | 567

Reference: the METLIN SMRT retention time set (Domingo-Almenara et al. 2019)
